In patent publication US9493446B2, “Orexin receptor antagonists which are [ortho bi-(hetero-)aryl]-[2-(meta bi-(hetero-)aryl)-pyrrolidin-1-yl]-methanone derivatives” (Actelion Pharmaceuticals Ltd, priority 2012, dated 2016) one finds IC50 data, which are given here for 22 compounds.

The target in one experiment is orexin-1 (Homo sapiens (Human), UniProt O43613). Put plainly: Intracellular calcium measurement (FLIPR), CHO cells expressing human orexin-1 receptor, 3 nM orexin-A. Conditions: CHO cells expressing human orexin-1 receptor, FLIPR, 3 nM orexin-A; geometric mean if determined several times; read-out: IC50 OX1. The class given is cell-based. In outline: (§1)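 CHO transfectants were dye-loaded (fluo-4 AM, probenecid) and exposed to antagonist for 120 min ahead of agonist.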
orexin-1, sequence (O43613 whole entry): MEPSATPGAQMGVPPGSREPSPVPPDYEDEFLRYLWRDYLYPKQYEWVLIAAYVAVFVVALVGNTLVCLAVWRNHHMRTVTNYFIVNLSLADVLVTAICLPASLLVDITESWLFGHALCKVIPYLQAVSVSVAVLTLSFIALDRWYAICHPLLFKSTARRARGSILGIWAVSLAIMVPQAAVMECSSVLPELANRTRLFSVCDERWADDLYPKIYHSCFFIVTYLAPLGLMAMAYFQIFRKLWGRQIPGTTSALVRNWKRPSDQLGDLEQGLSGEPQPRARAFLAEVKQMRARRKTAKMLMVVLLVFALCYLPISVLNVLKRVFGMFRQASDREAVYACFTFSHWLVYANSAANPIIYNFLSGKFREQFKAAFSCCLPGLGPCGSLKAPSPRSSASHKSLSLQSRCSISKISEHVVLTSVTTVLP
A general note: Calcium assays in cells follow changes in intracellular calcium, usually with a dye or a luminescent sensor.

For another experiment, the target named is human orexin-2 receptor (Homo sapiens (Human), UniProt O43614). Description: Intracellular calcium measurement (FLIPR), CHO cells expressing human orexin-2 receptor, 3 nM orexin-A. The class given is cell-based. The conditions noted are these: CHO cells expressing human orexin-2 receptor, FLIPR, 3 nM orexin-A; geometric mean if determined several times; read-out: IC50 OX2. In outline: as §1
human orexin-2 receptor, sequence (O43614 whole entry): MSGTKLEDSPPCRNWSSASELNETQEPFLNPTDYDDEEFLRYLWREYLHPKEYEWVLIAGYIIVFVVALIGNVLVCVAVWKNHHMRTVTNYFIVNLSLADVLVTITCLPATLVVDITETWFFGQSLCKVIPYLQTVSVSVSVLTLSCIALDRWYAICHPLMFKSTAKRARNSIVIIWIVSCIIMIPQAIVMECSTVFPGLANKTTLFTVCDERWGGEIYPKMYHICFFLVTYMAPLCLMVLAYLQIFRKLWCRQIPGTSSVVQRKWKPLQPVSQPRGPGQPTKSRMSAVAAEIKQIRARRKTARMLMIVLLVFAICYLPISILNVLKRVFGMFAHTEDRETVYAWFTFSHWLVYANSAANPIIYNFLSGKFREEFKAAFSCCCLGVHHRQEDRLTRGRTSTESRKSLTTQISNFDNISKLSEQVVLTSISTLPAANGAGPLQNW

Molecules are shown by their SMILES.

As for `COc1cccc(-c2nnc([C@@H]3CCCN3C(=O)c3cc(C)ccc3-n3nccn3)o2)c1` [Example 456, {(S)-2-[5-(3-Methoxy-phenyl)-[1,3,4]oxadiazol-2-yl]-pyrrolidin-1-yl}-(5-methyl-2-[1,2,3]triazol-2-yl-phenyl)-methanone], the IC50 on orexin-1 was found to be 1.74 µM; at human orexin-2 receptor, 0.536 µM.

As for `COc1c(Cl)cccc1-c1nnc([C@@H]2CCCN2C(=O)c2cc(C)c(C)cc2-n2nccn2)[nH]1` [compound 492, {(S)-2-[5-(3-Chloro-2-methoxy-phenyl)-4H-[1,2,4]triazol-3-yl]-pyrrolidin-1-yl}-(4,5-dimethyl-2-[1,2,3]triazol-2-yl-phenyl)-methanone], the IC50 at orexin-1 was 0.027 µM; at human orexin-2 receptor, 0.003 µM.

For `Cc1ccc(-n2cccn2)c(C(=O)N2CCC[C@H]2c2nc(-c3cccc(Cl)c3C)no2)c1` [compound 89], the IC50 at orexin-1 stood at 0.097 µM; on human orexin-2 receptor, 0.014 µM.

With `Cc1ccc(-n2nccn2)c(C(=O)N2CCC[C@H]2c2ncn(-c3ccccc3)n2)c1` [Example 535, (5-Methyl-2-[1,2,3]triazol-2-yl-phenyl)-[(S)-2-(1-phenyl-1H-[1,2,4]triazol-3-yl)-pyrrolidin-1-yl]-methanone], the concentration for half-maximal inhibition (IC50) at orexin-1 came out at 0.047 µM; on human orexin-2 receptor, 0.363 µM.

Take `CCOc1ccccc1-c1nnc([C@@H]2CCCN2C(=O)c2cc(C)ccc2-n2nccn2)o1` [Example 454, {(S)-2-[5-(2-Ethoxy-phenyl)-[1,3,4]oxadiazol-2-yl]-pyrrolidin-1-yl}-(5-methyl-2-[1,2,3]triazol-2-yl-phenyl)-methanone]: the results for the concentration for half-maximal inhibition (IC50) at orexin-1 and at human orexin-2 receptor were 1.14 µM and 0.375 µM, respectively.

On to `Cc1cccc(-c2ocnc2C(=O)N2CCC[C@@]2(C)c2nc(-c3ccccc3)no2)c1` [compound 539, [(S)-2-Methyl-2-(3-phenyl-[1,2,4]oxadiazol-5-yl)-pyrrolidin-1-yl]-(5-m-tolyl-oxazol-4-yl)-methanone], for which the results for the IC50 at orexin-1 and on human orexin-2 receptor were 0.56 µM and 1.78 µM, respectively.

Consider `CCOc1ncccc1-c1noc([C@@H]2CCCN2C(=O)c2ccc(C)c(C)c2-n2nccn2)n1` [compound 273, (3,4-Dimethyl-2-[1,2,3]triazol-2-yl-phenyl)-{(S)-2-[3-(2-ethoxy-pyridin-3-yl)-[1,2,4]oxadiazol-5-yl]-pyrrolidin-1-yl}-methanone], for which the figures for the half-inhibitory concentration (IC50) on orexin-1 and at human orexin-2 receptor were 0.148 µM and 0.134 µM, respectively.

In the case of `COc1cc(C(=O)N2CCC[C@H]2c2nc(-c3cccc(Cl)c3C)no2)c(-n2nccn2)cc1OC` [compound 133], the figures for the IC50 at orexin-1 and at human orexin-2 receptor were 0.522 µM and 0.036 µM, respectively.

As to `O=C(c1ccccc1-n1nccn1)N1CCC[C@H]1c1nc(-c2ccccc2C(F)(F)F)no1` [compound 178, (2-[1,2,3]Triazol-2-yl-phenyl)-{(S)-2-[3-(2-trifluoromethyl-phenyl)-[1,2,4]oxadiazol-5-yl]-pyrrolidin-1-yl}-methanone], the figures for the IC50 at orexin-1 and on human orexin-2 receptor were 0.549 µM and 0.132 µM, respectively.

Turning to `COc1cc(C(=O)N2CCC[C@H]2c2noc(-c3cccc(C)c3C)n2)c(-n2nccn2)cc1Cl` [compound 406], the IC50 was 0.022 µM on orexin-1 and 0.002 µM at human orexin-2 receptor.

With `Cc1cc(CC(C)C)nc(-c2noc([C@@H]3CCCN3C(=O)c3cc(C)ccc3-n3nccn3)n2)c1` [compound 67, {(S)-2-[3-(6-Isobutyl-4-methyl-pyridin-2-yl)-[1,2,4]oxadiazol-5-yl]-pyrrolidin-1-yl}-(5-methyl-2-[1,2,3]triazol-2-yl-phenyl)-methanone], the half-maximal inhibitory concentration (IC50) came to 1.25 µM on orexin-1 and 0.333 µM on human orexin-2 receptor.

For the compound `CCOc1ncccc1-c1nc([C@@H]2CCCN2C(=O)c2cc(OC)c(C)cc2-n2nccn2)no1` [compound 311, {(S)-2-[5-(2-Ethoxy-pyridin-3-yl)-[1,2,4]oxadiazol-3-yl]-pyrrolidin-1-yl}-(5-methoxy-4-methyl-2-[1,2,3]triazol-2-yl-phenyl)-methanone], the concentration for half-maximal inhibition (IC50) on orexin-1 came to 0.016 µM; at human orexin-2 receptor it was 0.004 µM.

With `CCOc1ncccc1-c1noc([C@@H]2CCCN2C(=O)c2cc(OC)ccc2-n2nccn2)n1` [compound 220, {(S)-2-[3-(2-Ethoxy-pyridin-3-yl)-[1,2,4]oxadiazol-5-yl]-pyrrolidin-1-yl}-(5-methoxy-2-[1,2,3]triazol-2-yl-phenyl)-methanone], the IC50 on orexin-1 was 0.053 µM; at human orexin-2 receptor, 0.016 µM.

`CCc1ccccc1-c1nc([C@@H]2CCCN2C(=O)c2cc(OC)c(C)cc2-n2nccn2)no1` [compound 404, {(S)-2-[5-(2-Ethyl-phenyl)-[1,2,4]oxadiazol-3-yl]-pyrrolidin-1-yl}-(5-methoxy-4-methyl-2-[1,2,3]triazol-2-yl-phenyl)-methanone]: the IC50 at orexin-1 worked out at 0.023 µM; on human orexin-2 receptor, 0.003 µM.

Take `Cc1ccc(-n2nccn2)c(C(=O)N2CCC[C@H]2c2nc(-c3cccc(C(F)(F)F)c3C)no2)c1` [compound 54, (5-Methyl-2-[1,2,3]triazol-2-yl-phenyl)-{(S)-2-[3-(2-methyl-3-trifluoromethyl-phenyl)-[1,2,4]oxadiazol-5-yl]-pyrrolidin-1-yl}-methanone]: the IC50 on orexin-1 was found to be 0.216 µM; on human orexin-2 receptor, 0.046 µM.

Turning to `O=C(c1cccc(F)c1-n1cccn1)N1CCC[C@H]1c1nc(-c2ccccc2OC(F)(F)F)no1` [compound 164, (3-Fluoro-2-pyrazol-1-yl-phenyl)-{(S)-2-[3-(2-trifluoromethoxy-phenyl)-[1,2,4]oxadiazol-5-yl]-pyrrolidin-1-yl}-methanone], the half-maximal inhibitory concentration (IC50) at orexin-1 worked out at 0.333 µM; at human orexin-2 receptor, 0.171 µM.

Take `Cc1ccccc1-c1noc([C@@H]2CCCN2C(=O)c2cccs2)n1` [Ref 3]: the IC50 is 6.27 µM on orexin-1 and above 10 µM at human orexin-2 receptor.

Regarding `Cc1ccc(-n2nccn2)c(C(=O)N2CCC[C@H]2c2nc(-c3ccccc3C)no2)c1` [compound 16, (5-Methyl-2-[1,2,3]triazol-2-yl-phenyl)-[(S)-2-(3-o-tolyl-[1,2,4]oxadiazol-5-yl)-pyrrolidin-1-yl]-methanone], the IC50 on orexin-1 was 0.128 µM; at human orexin-2 receptor, 0.016 µM.

Turning to `Cc1ccc(-n2nccn2)c(C(=O)N2CCC[C@H]2c2noc(-c3cccc4c3OCC4)n2)c1` [compound 307, {(S)-2-[5-(2,3-Dihydro-benzofuran-7-yl)-[1,2,4]oxadiazol-3-yl]-pyrrolidin-1-yl}-(5-methyl-2-[1,2,3]triazol-2-yl-phenyl)-methanone], the IC50 at orexin-1 is 0.13 µM; on human orexin-2 receptor it was 0.003 µM.

Regarding `COc1cc(C(=O)N2CCC[C@H]2c2nc(-c3cccc(Cl)c3C)no2)c(-n2nccn2)cc1F` [compound 130], the values for the half-inhibitory concentration (IC50) on orexin-1 and at human orexin-2 receptor were 0.188 µM and 0.016 µM, respectively.

For the compound `Cc1ccc(-n2nccn2)c(C(=O)N2CCC[C@H]2c2nc(-c3ccccc3OC(F)(F)F)no2)c1` [compound 17, (5-Methyl-2-[1,2,3]triazol-2-yl-phenyl)-{(S)-2-[3-(2-trifluoromethoxy-phenyl)-[1,2,4]oxadiazol-5-yl]-pyrrolidin-1-yl}-methanone], the IC50 on orexin-1 was 0.008 µM; at human orexin-2 receptor, 0.005 µM.

In the case of `COc1cc(C(=O)N2CCC[C@H]2c2nc(-c3ccccc3OC(F)(F)F)no2)c(-c2ncccn2)cc1C` [compound 285, (5-Methoxy-4-methyl-2-pyrimidin-2-yl-phenyl)-{(S)-2-[3-(2-trifluoromethoxy-phenyl)-[1,2,4]oxadiazol-5-yl]-pyrrolidin-1-yl}-methanone], the IC50 came out at 0.09 µM on orexin-1 and 0.056 µM on human orexin-2 receptor.

The IC50 is the midpoint of a concentration-inhibition curve.
